Results from patent US10179939B2, “Growth-independent detection of cells” (GeneWeave Biosciences, Inc., priority 2014, dated 2019).

What was measured:
MRSA = assay: Non-replicative transduction particle luxAB reporter assay with cefoxitin; type: cell-based, S. aureus; settings: cells phenotypically resistant to cefoxitin (MRSA); cefoxitin added prior to, simultaneously with, or after transduction particles
Text: (§1) To test the functionality of non-replicative transduction particles as reporters for detecting the presence of S. aureus cells, various MSSA/MRSA reporter assays were developed. In an embodiment, a non-replicative transduction particle was developed from a S. aureus-specific bacteriophage, and the bacterial luciferase genes luxAB under the control of a constitutive promoter were incorporated. When the non-replicative transduction particle delivered the reporter nucleic acid into S. aureus, the constitutive promoter expressed luxAB suitable for reporting on the presence of a viable S. aureus.
(§2) In addition, the antibiotic cefoxitin was added prior to, simultaneously with, or after the addition of the transduction particles to a sample containing S. aureus cells.

MSSA = assay: as above; type: cell-based, S. aureus; settings: cells not phenotypically resistant to cefoxitin (MSSA); cefoxitin added prior to, simultaneously with, or after transduction particles
Text: as §1, §2

CO[C@@]1(NC(=O)Cc2cccs2)C(=O)N2C(C(=O)O)=C(COC(N)=O)CS[C@@H]21 [cefoxitin]
luminescence (MRSA): increased or detectable luminescence | luminescence (MSSA): decreased or eliminated
